# Starred links: 1 amine or outer side, 2 acyl side, 3 side chain; linkers in the order of their positions; H or OH if unused. Non-standard residues stand in square brackets, D forms with d. Residues, ends and D or L forms follow the SMILES beside them. ξ: configuration not given here. Leu(5,5,5,5',5',5'-F6) = N[C@@H](CC(C(F)(F)F)C(F)(F)F)C(=O)O; ξBip(2'-Et-4'-OMe) = CCc1cc(OC)ccc1-c1ccc(CC(N)C(=O)O)cc1; X1 = O=C(C(CCCc1ccc(C(F)(F)F)cc1F)N[*:1])[*:2]; ξNva(5-(3-Cl-Ph)) = NC(CCCc1cccc(Cl)c1)C(=O)O; ξbishPhe(2-F) = NC(CCCc1ccccc1F)C(=O)O; ξαMePhe(2-F) = CC(N)(Cc1ccccc1F)C(=O)O; Aib = CC(C)(N)C(=O)O
# Experiments:
# [1] = Stability in liver microsomes; format: in vitro ADME; conditions: 2 μM peptidomimetic, human liver microsomes, 37° C.; for half-life at 2 μM: pH 7.8, read-out: half-life (t1/2) when incubated with liver microsomes
# Procedure: (§1) Reactions were terminated by the addition of TFA/H2O (15 mL, 10% (v/v)). […] The column was equilibrated with TFA/H20, at a flow rate of 1 mL/min.
# [2] = Stability in human plasma; format: in vitro ADME; conditions: 2 μM peptidomimetic, pooled human plasma, 37° C.; for half-life at 2 μM: pH 7.8, read-out: half-life (t1/2) when incubated with human plasma
# Procedure: as §1
# [3] = Stability in simulated intestinal fluid; format: in vitro ADME; conditions: 2 μM peptidomimetic, simulated intestinal fluid pH 7.5, 37° C.; for half-life at 2 μM: read-out: half-life (t1/2) when incubated with simulated intestinal fluid
# Procedure: as §1
# [4] = Stability in simulated gastric fluid; format: in vitro ADME; conditions: 2 μM peptidomimetic, simulated gastric fluid pH 1.5, 37° C.; for half-life at 2 μM: read-out: half-life (t1/2) when incubated with simulated gastric fluid
# Procedure: as §1
# human glucagon receptor = biological target: T1, human glucagon receptor (Homo sapiens, UniProt P47871); test: In vitro human glucagon antagonist activity (inhibition of cAMP production) in CHO/human glucagon R cells; format: cell-based; conditions: with saturated concentration of glucagon peptide
# T1 construct: The full-length cDNA was cloned in pcDNA3.1 (Invitrogen); expressed in transfected cells
# T1 sequence (P47871 26-477): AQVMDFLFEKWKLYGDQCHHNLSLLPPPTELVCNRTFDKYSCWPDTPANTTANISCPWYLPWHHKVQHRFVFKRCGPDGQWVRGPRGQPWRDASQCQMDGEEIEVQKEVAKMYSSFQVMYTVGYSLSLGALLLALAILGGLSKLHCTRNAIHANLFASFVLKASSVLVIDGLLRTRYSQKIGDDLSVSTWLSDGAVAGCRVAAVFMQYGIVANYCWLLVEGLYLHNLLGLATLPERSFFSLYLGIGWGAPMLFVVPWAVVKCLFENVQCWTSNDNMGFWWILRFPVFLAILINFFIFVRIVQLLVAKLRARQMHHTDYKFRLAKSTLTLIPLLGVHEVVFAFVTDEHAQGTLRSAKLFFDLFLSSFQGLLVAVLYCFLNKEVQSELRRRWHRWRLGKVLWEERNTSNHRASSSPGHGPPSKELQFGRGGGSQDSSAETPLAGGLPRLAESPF
# DPP IV = DPP IV (Homo sapiens, UniProt P27487); test: Stability against DPP IV enzyme; format: in vitro ADME; conditions: 37° C.; for % degradation of peptidomimetics in 24 h when incubated with DPP-IV enzyme: 2 μM peptidomimetic; for half-life at 2 μM: DPP IV enzyme, pH 7.8, 2 μM peptidomimetic, read-out: half-life (t1/2) when incubated with DPP-IV enzyme
# Sequence of DPP IV (P27487 whole entry, species assumed): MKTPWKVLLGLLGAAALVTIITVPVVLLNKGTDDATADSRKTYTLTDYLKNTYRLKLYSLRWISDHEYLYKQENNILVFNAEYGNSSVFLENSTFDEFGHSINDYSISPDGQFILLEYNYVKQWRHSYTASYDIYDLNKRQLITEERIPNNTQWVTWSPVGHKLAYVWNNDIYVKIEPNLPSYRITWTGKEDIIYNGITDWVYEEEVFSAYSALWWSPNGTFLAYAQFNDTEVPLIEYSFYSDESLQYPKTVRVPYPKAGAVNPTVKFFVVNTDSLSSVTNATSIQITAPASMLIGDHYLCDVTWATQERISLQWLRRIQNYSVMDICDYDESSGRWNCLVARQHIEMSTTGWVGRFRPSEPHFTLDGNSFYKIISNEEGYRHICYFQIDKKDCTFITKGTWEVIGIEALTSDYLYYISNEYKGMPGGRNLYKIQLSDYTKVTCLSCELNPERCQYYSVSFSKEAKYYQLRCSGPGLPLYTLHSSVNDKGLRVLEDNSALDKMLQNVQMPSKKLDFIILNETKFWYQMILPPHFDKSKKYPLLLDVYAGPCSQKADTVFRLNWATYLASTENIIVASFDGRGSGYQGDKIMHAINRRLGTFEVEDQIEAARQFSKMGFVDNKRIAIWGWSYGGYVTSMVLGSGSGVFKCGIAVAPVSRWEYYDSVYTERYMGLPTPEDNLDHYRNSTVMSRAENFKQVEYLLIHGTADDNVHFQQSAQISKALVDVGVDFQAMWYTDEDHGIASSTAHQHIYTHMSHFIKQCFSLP
# Procedure: as §1
half-life (t1/2) when incubated with liver microsomes [1],SMILES,% degradation of peptidomimetics in 24 h when incubated with liver microsomes [1] [%],half-life at 2 μM [1] [min],half-life (t1/2) when incubated with human plasma [2],% degradation of peptidomimetics in 24 h when incubated with human plasma [2] [%],% degradation of peptidomimetics in 24 h when incubated with simulated intestinal fluid [3] [%],half-life at 2 μM [3] [min],% degradation of peptidomimetics in 24 h when incubated with simulated gastric fluid [4] [%],half-life at 2 μM [4] [min],Human Glucagon receptor antagonistic activity shown as inhibition of cAMP production of Glucagon peptide (human glucagon receptor; 1 nM test compound) [pmol/ml/μg prt],Human Glucagon receptor antagonistic activity shown as inhibition of cAMP production of Glucagon peptide (human glucagon receptor; 10 nM test compound) [pmol/ml/μg prt],Human Glucagon receptor antagonistic activity shown as inhibition of cAMP production of Glucagon peptide (human glucagon receptor; 100 nM test compound) [pmol/ml/μg prt],Human Glucagon receptor antagonistic activity shown as inhibition of cAMP production of Glucagon peptide (human glucagon receptor; 1 μM test compound) [pmol/ml/μg prt],Human Glucagon receptor antagonistic activity shown as inhibition of cAMP production of Glucagon peptide (human glucagon receptor; 10 μM test compound) [pmol/ml/μg prt],% degradation of peptidomimetics in 24 h when incubated with DPP-IV enzyme (DPP IV) [%],half-life at 2 μM [2] [min],half-life (t1/2) when incubated with simulated intestinal fluid [3],half-life (t1/2) when incubated with simulated gastric fluid [4],half-life at 2 μM (DPP IV) [min]
–,"CCc1cc(OC)ccc1-c1ccc(CC(NC(=O)[C@H](CC(=O)O)NC(=O)[C@H](CO)NC(=O)[C@@H](NC(=O)C(C)(Cc2ccccc2F)NC(=O)[C@@H](NC(=O)CNC(=O)C(CCC#N)NC(=O)C(C)(C)NC(=O)[C@H](Cc2c[nH]cn2)NC(=O)OC)[C@@H](C)O)[C@@H](C)O)C(=O)NC(CCCc2ccccc2F)C(N)=O)cc1 (single isomer, unassigned) [compound 208]",100,30,(9) h,78,100,30,100,30,5 ± 0.04,3 ± 0.15,1 ± 0.15,0,0,76,–,–,–,–
–,CCc1cc(OC)ccc1-c1ccc(CC(NC(=O)[C@H](CC(=O)O)NC(=O)[C@H](CO)NC(=O)[C@@H](NC(=O)[C@H](Cc2ccccc2)NC(=O)[C@@H](NC(=O)CNC(=O)[C@H](CCC(N)=O)NC(=O)C(C)(C)NC(=O)[C@@H](N)Cc2c[nH]cn2)[C@@H](C)O)[C@@H](C)O)C(=O)NC(CCCc2ccc(C(F)(F)F)cc2F)C(N)=O)cc1 (some centres unmarked) [compound 65] (H-H[Aib]QGTFTSD[ξBip(2'-Et-4'-OMe)][X1]-NH2),80,60,–,78,43,–,14,–,10 ± 0.12,8 ± 0.02,6 ± 0.04,4 ± 0.05,1 ± 0.02,76,480,(6) h,(8) h,540
–,"CCc1cc(OC)ccc1-c1ccc(CC(NC(=O)[C@H](CC(=O)O)NC(=O)[C@H](CO)NC(=O)[C@@H](NC(=O)C(C)(Cc2ccccc2F)NC(=O)[C@@H](NC(=O)CNC(=O)[C@H](CC(C(F)(F)F)C(F)(F)F)NC(=O)C(C)(C)NC(=O)[C@H](Cc2c[nH]cn2)NC(C)=O)[C@@H](C)O)[C@@H](C)O)C(=O)NC(CCCc2ccccc2F)C(N)=O)cc1 (some centres unmarked) [compound 212] (Ac-H[Aib][Leu(5,5,5,5',5',5'-F6)]GT[ξαMePhe(2-F)]TSD[ξBip(2'-Et-4'-OMe)][ξbishPhe(2-F)]-NH2)",100,30,(9) h,80,100,30,100,30,10 ± 0.12,8 ± 0.02,6 ± 0.04,4 ± 0.05,1 ± 0.02,77,–,–,–,–
(5) h,"CCc1cc(OC)ccc1-c1ccc(CC(NC(=O)[C@H](CC(=O)O)NC(=O)[C@H](CO)NC(=O)[C@@H](NC(=O)C(C)(Cc2ccccc2F)NC(=O)[C@@H](NC(=O)CNC(=O)[C@H](CC(C(F)(F)F)C(F)(F)F)NC(=O)C(C)(C)NC(=O)[C@@H](N)Cc2c[nH]cn2)[C@@H](C)O)[C@@H](C)O)C(=O)NC(CCCc2cccc(Cl)c2)C(N)=O)cc1 (some centres unmarked) [compound 236] (H-H[Aib][Leu(5,5,5,5',5',5'-F6)]GT[ξαMePhe(2-F)]TSD[ξBip(2'-Et-4'-OMe)][ξNva(5-(3-Cl-Ph))]-NH2)",35,–,–,00,00,> 1440,00,> 1440,–,–,–,–,–,00,> 1440,–,–,> 1440

# Reference: patent publication US8883963B2 (Cadila Healthcare Limited, priority 2007, dated 2014)
